The values that follow come from US20260327250A1, “3-ETHYLAMINO-INDOLE DIMERS AS SEROTONERGIC AGENTS USEFUL FOR THE TREATMENT OF DISORDERS RELATED THERETO” (MINDSET PHARMA INC., priority 2022, published 2026).

Series [1] is described as follows: Rat liver microsomes stability. The following applies: Remaining Percentage after 60 min.
Description: (§1) The concentrations of parent compounds in reaction systems were evaluated by LC-MS/MS for estimating the stability in pooled human, male rat and male mouse liver microsomes. The in vitro intrinsic clearances of test compounds were determined as well. Protocol
(§2) A master solution in the “Incubation Plate” containing phosphate buffer, ultra-pure H2O, MgCl2 solution and liver microsomes was made according to Table 6. The mixture was pre-warmed at 37° C. water bath for 5 minutes.
(§3) The reaction was started with the addition of 4 μL of 200 μM exemplary test compounds of the application or control compounds to each master solution to get the final concentration of 2 μM. This study was performed in duplicate.
(§4) Aliquots of 50 μL were taken from the reaction solution at 0, 15, 30, 45 and 60 minutes. The reaction solutions were stopped by the addition of 4 volumes of cold methanol with IS (100 nM alprazolam, 200 nM imipramine, 200 nM labetalol and 2 μM ketoprofen). Samples were centrifuged at 3,220 g for 40 minutes. Aliquot of 90 μL of the supernatant was mixed with 90 μL of ultra-pure H2O and then was used for LC-MS/MS analysis.
(§5) All calculations were carried out using Microsoft Excel. Peak area ratios of test compound to internal standard (listed in the below table) were determined from extracted ion chromatograms.
(§6) All calculations were carried out using Microsoft Excel. Peak areas were determined from extracted ion chromatograms. The slope value, k, was determined by linear regression of the natural logarithm of the remaining percentage of the parent drug vs. incubation time curve.
(§7) The in vitro half-life (in vitro t½) was determined from the slope value:
(§8) Conversion of the in vitro t½ (min) into the in vitro intrinsic clearance (in vitro CLint, in μL/min/mg proteins) was done using the following equation (mean of duplicate determinations):
Series [2] is described as follows: Mouse liver microsomes stability. The following applies: Remaining Percentage after 60 min. In general terms: Liver microsomes are vesicles of endoplasmic reticulum, rich in cytochrome P450 enzymes.
Description: as §1, §2, §3, §4, §5, §6, §7, §8
The next series is described as follows: in vitro. As to conditions: human, liver microsomes, Remaining Percentage after 60 min, human liver microsomes, without cofactors.
Another series relates to Caco-2 cell monolayers. The experiment in a line: Intestinal mucosal permeation using Caco-2 cell monolayers. The following applies: for Efflux ratio: Papp (B→A) / Papp (A→B); for Efflux ratio / Percentage recovery A→B / Percentage recovery B→A: 120 min, 5 µM; for Papp A→B / Percentage recovery A→B: apical to basolateral; for Papp A→B / Papp B→A: 5 μM, 37° C., 2 hours, pH 7.4; for Papp B→A / Percentage recovery B→A: basolateral to apical. On the technique in general: Caco-2 cells form a polarised layer with tight junctions and transporters.

For series [3], the system named is brain's default mode network. The following applies: humans, intravenous; cited from earlier work.
For series [4] the following is noted: EEG during sleep; cited from earlier work.
The test system of a further series is 5-HT2 receptor. As to conditions: rat brain, daily administration; cited from earlier work.
The conditions of series [5]: patients; psilocybin-assisted psychotherapy or supportive setting; cited from earlier work.

“Also recorded” adds a separate entry of the source.

Description for Caco-2 cell monolayers: The Caco-2 cell culture medium was prepared consisting of Dulbecco's Modified Eagle's Medium (DMEM) with high glucose and L-glutamine supplemented with 10% FBS, 1× penicillin-streptomycin mixture and 1× non-essential amino acids (NEAA). • 2. The 50 μL of culture medium was added to each well of the Transwell insert. Transwell insert was removed from reservoir and 25 mL of culture medium was added. • 3. Incubated at 37° C., 5% CO2 for 1 hour. Plates were ready for cell seeding. • 4. The cells were cultivated in T-75 flasks in a cell culture incubator set at 37° C., 5% CO2, 95% relative humidity. The cells were allowed to reach 80-90% confluence before detaching and splitting. • 5. The cultivated cells were rinsed in T-75 flasks with 5 mL PBS. Aspirated off, 1.5 mL trypsin/EDTA was added, and incubated at 37° C. for approximately 5 to 10 minutes or until the cells detach and float. Trypsin/EDTA was inactivated by adding excess serum containing medium. • 6. The cell suspension was moved to a conical tube and cells were pelleted by centrifugation at 120×g for 10 minutes. • 7. The cells were resuspended in seeding medium at a density of 6.86×10^5 cells/mL. This cell concentration can be used to seed 2.40×10^5 cells/cm^2. […] Seeding and Feeding of Caco-2 Cells in Transwell Plates • 1. 50 μL of above cell suspension was added to each well of a previously prepared Transwell plate. • 2. The plate was incubated for 14-18 days. The medium was replaced every other day, beginning no sooner than 48 hours after initial plating. • 3. The procedure for medium changes was as follows. The plate was removed from incubator and placed in hood. The medium was aspirated from reservoir and each Transwell insert. 75 μL of culture medium was added to each well of Transwell inserts and 25 mL of culture medium was added to reservoir tray. The plate was returned to incubator.
When the 14-day Caco-2 cultured cells have reached confluence and are differentiated, they were ready to be used for transport studies. • 2. The medium was removed from reservoir and Transwell inserts. • 3. 75 μL of pre-warmed culture medium was added to each transwell insert and 25 mL of reservoir tray. • 4. The electrical resistance across the monolayer was measured using automated tissue resistance measuring system (World Precision Instruments, Sarasota, FL). • 5. The electrical resistance was recorded for each well. • 6. Once all wells were measured, the plate was returned to incubator. • 7. TEER of each well was calculated by the equation below. The TEER value of each well should be greater than 230 ohms-cm^2. TEER measurement (ohms)×Area of membrane (cm^2)=TEER value (ohm-cm^2)
The Caco-2 plate was removed from the incubator. Next, the monolayer was washed, and the volume exchanged two times using pre-warmed HBSS (10 mM HEPES, pH 7.4). Then the plate was incubated for 30 minutes at 37° C. • 1 mM stock solutions of control compounds and test compound(s) were prepared in DMSO and diluted with HBSS (10 mM HEPES, pH 7.4) to reach the final concentration of 5 μM. The final concentration of DMSO in the incubation system was 0.5%. Digoxin, prazosin and propranolol were used as control compounds in this assay. • 3. HBSS (10 mM HEPES, pH 7.4) was removed after 30 minutes pre-incubation. • 4. The rate of drug transport was incubated in the apical to basolateral direction. 75 μL of the control compounds and test compound was added to the Transwell insert (apical compartment). The wells were filled in the receiver plate (basolateral compartment) with 235 μL of HBSS (10 mM HEPES, pH 7.4). • 5. The rate of drug transport was determined in the basolateral to apical direction. 235 μL of the control compounds and test compound(s) was added to the receiver plate wells (basolateral compartment). The Transwell insert (apical compartment) was filled with 75 μL of HBSS (10 mM HEPES, pH 7.4). • 6. […] Incubated at 37° C. for 2 hours. • 8.
Description for Dog plasma stability: (§9) The stock solution of test compound was prepared in DMSO and diluted at the final concentration of 200 μM.
(§10) • a. 2.5 μL of 200 μM or 1 mM test compound or control compound solution was spiked to 497.5 μL plasma to reach a final concentration of 1 μM or 5 μM. The final concentration of organic solvents was 0.5%. The assay was performed in duplicated. • b. The reaction samples were incubated at 37° C. at approximately 60 rpm in a water bath. • c. Aliquots of 50 μL were taken from the reaction samples at 0, 30, 60, 120, 180 and 240 minutes. The reaction was stopped by the addition of 7 volumes of cold acetonitrile containing internal standards (IS: 100 nM alprazolam, 200 nM imipramine, 200 nM labetalol and 2 μM ketoprofen). • d. All samples were vortexed for 2 minutes, followed by centrifugation at 3,220 g for 30 minutes to precipitate proteins. 100 μL of the supernatant was transferred to a new plate. The supernatant was diluted with ultrapure water according to the LC-MS signal response and peak shape.
(§11) Samples were Analyzed by LC-MS/MS. • LC system: Shimadzu • MS analysis: Triple Quad™ 6500+ from AB Inc (Canada) with an ESI interface • Column temperature: 40° C. • Column: Xselect® Hss T3 2.5μ (2.1×30 mm) coupled with preguard column • Mobile phase: 0.1% formic acid in water (A) and 0.1% formic acid in acetonitrile (B)
(§12) All calculations were carried out using Microsoft Excel. Remaining percentages of parent compounds at each time point were estimated by determining the peak area ratios from extracted ion chromatograms.
Description for Human plasma stability: as §9, §10, §11, §12
Description for Mouse plasma stability: as §9, §10, §11, §12
Description for Rat plasma stability: as §9, §10, §11, §12
Description for in vitro: as §1, §2, §3, §4, §5, §6, §7, §8

As to `O=C(O)Cc1ccccc1Nc1c(Cl)cccc1Cl` [Diclofenac], the amount remaining at 1 h, 2 µM in series [1] (with cofactors) was 7.11%; in series [1] (without cofactors), 97.9%; in series [2] (with cofactors), 35.9%; in [2] (without cofactors), 97.9%; in “in vitro”, 95.9%.

In the case of `C[C@H]1O[C@@H](O[C@H]2[C@@H](O)C[C@H](O[C@H]3[C@@H](O)C[C@H](O[C@H]4CC[C@@]5(C)[C@H](CC[C@@H]6[C@@H]5C[C@@H](O)[C@]5(C)[C@@H](C7=CC(=O)OC7)CC[C@]65O)C4)O[C@@H]3C)O[C@@H]2C)C[C@H](O)[C@@H]1O` [Digoxin], in the series with Caco-2 cell monolayers, the Efflux ratio was found to be 35.38, the “Papp A→B” value is 0.53 cm/s × 10^−6, the “Percentage recovery A→B” value worked out at 86.58% and the “Papp B→A” value is listed as 18.89 cm/s × 10^−6. The “Percentage recovery B→A” value with Caco-2 cell monolayers is listed as 104.27%.

Turning to `CCN(CC)C(=O)[C@@H]1C=C2c3cccc4[nH]cc(c34)C[C@H]2N(C)C1` [LSD], the oscillatory power result in series [3] is “decreases in oscillatory power in areas of the brain's default mode network”. In addition, in [4], the sleep patterns entry is recorded as “positively affect sleep patterns”. Further, in the series with 5-HT2 receptor, the 5-HT2 receptor density entry was “selectively decreased 5-HT2 receptor density in the rat brain; also recorded: reduce 5-HT2 receptor density in rat brain”. Further, the “relief of depression and anxiety” value in series [5] was “significant and sustained anti-depressant and anxiolytic effects”.

Take `CC[C@H](C)C(=O)O[C@H]1C[C@@H](C)C=C2C=C[C@H](C)[C@H](CC[C@@H]3C[C@@H](O)CC(=O)O3)[C@H]21` [Lovastatin, reference compound]: the “Remaining Percentage” value in the series “Rat plasma stability” (rat plasma, 0 min) is 100.00%. Also, in “Rat plasma stability” (rat, plasma), the share remaining at 0.5 h is 0%, the amount remaining at 1 h turned out to be 0%, the share remaining at 2 h was 0% and the amount remaining at 3 h was determined as 0%. Also, the fraction remaining at 4 h in the series “Rat plasma stability” (rat, plasma) was determined as 0%. Also, the “Remaining Percentage” value in “Dog plasma stability” (dog plasma, 0 min) came out at 100.00%. Also, in “Dog plasma stability” (dog, plasma), the fraction remaining at 0.5 h amounted to 101%, the fraction remaining at 1 h came to 64.8%, the amount remaining at 2 h worked out at 40.8% and the fraction remaining at 3 h is 22.4%. For the same compound, the share remaining at 4 h in “Dog plasma stability” (dog, plasma) was found to be 11%.

For `COc1cc2nc(N3CCN(C(=O)c4ccco4)CC3)nc(N)c2cc1OC` [Prazosin], in the series on Caco-2 cell monolayers, the Efflux ratio stood at 3.28, the “Papp A→B” value amounted to 10.14 cm/s × 10^−6, the “Percentage recovery A→B” value was found to be 79.47% and the “Papp B→A” value is on record as 33.06 cm/s × 10^−6. For the same compound, the “Percentage recovery B→A” value in the series on Caco-2 cell monolayers turned out to be 104.81%.

Take `CC(C)[N+](C)(CCOC(=O)C1c2ccccc2Oc2ccccc21)C(C)C` [Propantheline, reference compound]: the “Remaining Percentage” value in the series “Mouse plasma stability” (mouse plasma, 0 min) is listed as 100.00%. Moreover, in the series “Mouse plasma stability” (mouse plasma, 37° C., N.A. if no peak detected at 30 min), the T1/2 is on record as 34.36 min. Besides, in the series “Mouse plasma stability” (mouse, plasma), the share remaining at 0.5 h amounted to 65.3%, the amount remaining at 1 h amounted to 32.5%, the fraction remaining at 2 h is 9.12% and the share remaining at 3 h came out at 2.9%. In addition, the amount remaining at 4 h in the series “Mouse plasma stability” (mouse, plasma) was determined as 0.87%. In addition, the T1/2 in the series “Human plasma stability” (human plasma, 37° C., N.A. if no peak detected at 30 min) is recorded as 9.53 min. Moreover, in the series “Human plasma stability” (human, plasma), the fraction remaining at 0.5 h was 18.7%, the amount remaining at 1 h was found to be 1.28%, the fraction remaining at 3 h amounted to 0% and the fraction remaining at 4 h came to 0%.

Consider `CC(C)NCC(O)COc1cccc2ccccc12` (stereo not drawn) [Propranolol], for which, in the series with Caco-2 cell monolayers, the Efflux ratio was 0.69, the “Papp A→B” value worked out at 33.5 cm/s × 10^−6, the “Percentage recovery A→B” value is 91.34% and the “Papp B→A” value came out at 23.09 cm/s × 10^−6. Besides, in the series with Caco-2 cell monolayers, the “Percentage recovery B→A” value came out at 92.59%.
